The target in test [1] is T1, EP4 receptors (Homo sapiens, UniProt P35408).
T1 construct: expressed in transfected cells; host or cells: HEK-293
The experiment in a line: Radioligand binding ([3H]PGE2), EP4. The following applies: unit inferred; read-out: EP4 data KI. The procedure: (§1) HEK-293 cells stably expressing the human or feline FP receptor, or EP1, EP2, or EP4 receptors were washed with TME buffer, scraped from the bottom of the flasks, and homogenized for 30 sec using a Brinkman PT 10/35 polytron. TME buffer was added to achieve a final 40 ml volume in the centrifuge tubes (the composition of TME is 100 mM TRIS base, 20 mM MgCl2, […]; 10N HCl is added to achieve a pH of 7.4).
(§2) The cell homogenate was centrifuged at 19000 r.p.m. for 20 min at 4° C. using a Beckman Ti-60 rotor. The resultant pellet was resuspended in TME buffer to give a final 1 mg/ml protein concentration, as determined by Biorad assay. Radioligand binding competition assays vs. [^3H-]17 —phenyl PGF2α (5 nM) were performed in a 100 μl volume for 60 min. Binding reactions were started by adding plasma membrane fraction. The reaction was terminated by the addition of 4 ml ice-cold TRIS-HCl buffer and rapid filtration through glass fiber GF/B filters using a Brandel cell harvester. The filters were washed 3 times with ice-cold buffer and oven dried for one hour.
(§3) [^3H-] PGE2 (specific activity 180 Ci mmol) was used as the radioligand for EP receptors. [^3H] 17-phenyl PGF2α was employed for FP receptor binding studies. Binding studies employing EP1, EP2, EP4 and FP receptors were performed in duplicate in at least three separate experiments. A 200 μl assay volume was used. Incubations were for 60 min at 25° C. and were terminated by the addition of 4 ml of ice-cold 50 mM TRIS-HCl, followed by rapid filtration through Whatman GF/B filters and three additional 4 ml washes in a cell harvester (Brandel). Competition studies were performed using a final concentration of 5 nM [^3H]—PGE2, or 5 nM [^3H] 17-phenyl PGF2α and non-specific binding determined with 10^−5M of unlabeled PGE2, or 17-phenyl PGF2α, according to receptor subtype studied.

The target in test [2] is T2, hEP3A/Gqi5 (Homo sapiens, UniProt P43115).
T2 construct: expressed in transfected cells; host or cells: HEK-293(EBNA)
T2 sequence (P43115 1-390): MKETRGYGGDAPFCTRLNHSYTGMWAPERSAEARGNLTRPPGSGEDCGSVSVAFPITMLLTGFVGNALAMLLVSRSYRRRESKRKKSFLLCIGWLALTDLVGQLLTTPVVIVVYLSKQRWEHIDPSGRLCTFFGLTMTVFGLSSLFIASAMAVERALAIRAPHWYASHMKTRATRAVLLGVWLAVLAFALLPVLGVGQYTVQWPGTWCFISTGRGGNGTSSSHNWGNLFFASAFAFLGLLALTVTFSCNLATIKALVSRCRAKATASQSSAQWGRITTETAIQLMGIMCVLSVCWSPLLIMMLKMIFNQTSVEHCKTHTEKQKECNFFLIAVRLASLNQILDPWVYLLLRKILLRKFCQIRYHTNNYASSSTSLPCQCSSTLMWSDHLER
The experiment in a line: FLIPR calcium signal, hEP3A. The format is cell-based. The following applies: read-out: Other Receptors EC50 hEP3A. The procedure:
(§4) HEK-293(EBNA) cells, stably expressing one type or subtype of recombinant human prostaglandin receptors (prostaglandin receptors expressed: hDP/Gqs5; hEP1; hEP2/Gqs5; hEP3A/Gqi5; hEP4/Gqs5; hFP; hIP; hTP), were cultured in 100 mm culture dishes in high-glucose DMEM medium containing 10% fetal bovine serum, 2 mM 1-glutamine, 250 μg/ml geneticin (G418) and 200 μg/ml hygromycin B as selection markers, and 100 units/ml penicillin G, 100 μg/ml streptomycin and 0.25 μg/ml amphotericin B. • (b) Calcium Signal Studies on the FLIPR™
(§5) Cells were seeded at a density of 5×10^4 cells per well in Biocoat® Poly-D-lysine-coated black-wall, clear-bottom 96-well plates (Becton-Dickinson) and allowed to attach overnight in an incubator at 37° C. Cells were then washed two times with HBSS-HEPES buffer (Hanks Balanced Salt Solution without bicarbonate and phenol red, 20 mM HEPES, pH 7.4) using a Denley Cellwash plate washer (Labsystems). After 45 minutes of dye-loading in the dark, using the calcium-sensitive dye Fluo-4 AM at a final concentration of 2 μM, plates were washed four times with HBSS-HEPES buffer to remove excess dye leaving 100 μl in each well. Plates were re-equilibrated to 37° C. for a few minutes.
(§6) Cells were excited with an Argon laser at 488 nm, and emission was measured through a 510-570 nm bandwidth emission filter (FLIPR™, Molecular Devices, Sunnyvale, Calif.). Drug solution was added in a 50 μl volume to each well to give the desired final concentration. The peak increase in fluorescence intensity was recorded for each well. On each plate, four wells each served as negative (HBSS-HEPES buffer) and positive controls (standard agonists: BW245C (hDP); PGE2 (hEP1; hEP2/Gqs5; hEP3A/Gqi5; hEP4/Gqs5); PGF2α (hFP); carbacyclin (hIP); U-46619 (hTP), depending on receptor). The peak fluorescence change in each drug-containing well was then expressed relative to the controls.
(§7) Compounds were tested in a high-throughput (HTS) or concentration-response (CoRe) format. In the HTS format, forty-four compounds per plate were examined in duplicates at a concentration of 10^−5 M. To generate concentration-response curves, four compounds per plate were tested in duplicates in a concentration range between 10^−5 and 10^−11 M. The duplicate values were averaged. In either, HTS or CoRe format each compound was tested on at least 3 separate plates using cells from different passages to give an n≧3.

Test [3] deals with T3, HEK-EBNA cells expressing a PG EP2 receptor subtype (Homo sapiens, UniProt P43116).
T3 construct: expressed in transfected cells; host or cells: HEK-EBNA
T3 sequence (P43116 whole entry): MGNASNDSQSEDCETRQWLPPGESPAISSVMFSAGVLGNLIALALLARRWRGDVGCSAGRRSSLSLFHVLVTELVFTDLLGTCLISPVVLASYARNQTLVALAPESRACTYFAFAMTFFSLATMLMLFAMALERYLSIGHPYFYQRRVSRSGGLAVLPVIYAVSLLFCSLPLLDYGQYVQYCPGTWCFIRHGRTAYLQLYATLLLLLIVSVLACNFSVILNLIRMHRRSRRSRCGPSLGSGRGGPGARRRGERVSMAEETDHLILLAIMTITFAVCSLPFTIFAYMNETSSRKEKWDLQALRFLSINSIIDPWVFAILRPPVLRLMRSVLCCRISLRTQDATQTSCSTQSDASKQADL
Kind of test: cAMP assay, EP2. The format is cell-based. The following applies: unit inferred; read-out: EP2 data cAMP EC50. The procedure: A 384-well drug plate was prepared to contain 6 test compounds, PGE2 and cAMP in 16 serial dilutions in triplicate, using a Biomek station. HEK-EBNA cells expressing a target PG receptor subtype (EP2 or EP4) were suspended in a stimulation buffer (HBSS, 0.1% BSA, 0.5 mM IBMX and 5 mM HEPES, pH 7.4) in a density of 10^4 cells/5 μl. The reaction was initiated by mixing 5 μL drug dilutions with 5 μl of HEK-EBNA cells in a well, carried out for 30 min at room temperature, and followed by the addition of 5 μl anti-cAMP acceptor beads in the control buffer with Tween-20 (25 mM NaCl, 0.03% Tween-20, 5 mM HEPES, pH7.4). After 30 min in the dark at room temperature, the mixtures were incubated with 15 μl biotinylated-cAMP/strepavidin donor beads in Lysis/Detection buffer (0.1% BSA, 0.3% Tween-20 and 5 mM HEPES, pH7.4) for 45 min at the room temperature. Fluorescence changes were read using a Fusion-alpha HT microplate reader.

Test [4] has as its target T4, human EP2 receptors (Homo sapiens, UniProt P43116).
T4 construct: expressed in transfected cells; host or cells: HEK 293
Kind of test: Competition radioligand binding ([3H]PGE2), EP2. The following applies: unit inferred; read-out: EP2 data Ki. As for the experimental part:
Competition binding experiments were performed in a medium containing Hank's balanced salt solution, […], membranes (˜60 μg protein) or 2×10^5 cells from HEK 293 cells stably expressing human EP2 receptors, [^3H]PGE2 (10 nM) and various concentrations of test compounds in a total volume of 300 μl. Reaction mixtures were incubated at 23° C. for 60 min, and were filtered over Whatman GF/B filters under vacuum. Filters were washed three times with 5 ml ice-cold buffer containing 50 mM Tris/HCl (pH 7.3). Non-specific binding was estimated in the presence of excess unlabeled PGE2 (10 μM). Binding data fitted to the binding model for a single class of binding sites, using nonlinear regression analysis. IC50 values thus obtained were converted to Ki using the equation of Ki=(IC50/(1+[L]/KD) where [L] represents PGE2 concentration (10 nM) and KD the dissociation constant for [^3H]PGE2 at human EP2 receptors (40 nM).
as §1, §2, §3

Test [5] deals with T5, hEP4/Gqs5 (Homo sapiens, UniProt P35408).
T5 construct: expressed in transfected cells; host or cells: HEK-293(EBNA)
T5 sequence (P35408 whole entry): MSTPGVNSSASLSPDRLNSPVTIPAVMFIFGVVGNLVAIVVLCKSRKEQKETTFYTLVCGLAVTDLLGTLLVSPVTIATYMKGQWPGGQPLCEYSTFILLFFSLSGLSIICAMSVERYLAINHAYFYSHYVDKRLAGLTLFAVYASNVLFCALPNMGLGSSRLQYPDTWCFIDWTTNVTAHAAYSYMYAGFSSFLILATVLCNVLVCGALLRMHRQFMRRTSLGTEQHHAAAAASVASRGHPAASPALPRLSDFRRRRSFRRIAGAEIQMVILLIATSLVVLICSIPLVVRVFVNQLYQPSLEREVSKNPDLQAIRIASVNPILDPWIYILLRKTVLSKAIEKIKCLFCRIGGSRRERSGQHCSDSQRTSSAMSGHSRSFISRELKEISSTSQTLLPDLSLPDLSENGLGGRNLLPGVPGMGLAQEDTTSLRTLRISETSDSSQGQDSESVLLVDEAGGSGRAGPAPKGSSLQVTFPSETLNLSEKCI
Kind of test: FLIPR calcium signal, hEP4. It is filed as cell-based. The following applies: unit inferred; read-out: EP4 data flipr EC50. As for the experimental part:
as §4, §5, §6, §7

Test [6] deals with T6, hEP2/Gqs5 (Homo sapiens, UniProt P43116).
T6 construct: expressed in transfected cells; host or cells: HEK-293(EBNA)
T6 sequence (P43116 whole entry): as the sequence (P43116 whole entry) above
Kind of test: FLIPR calcium signal, hEP2. The following applies: unit inferred; other columns of the table in nM; read-out: EP2 data flipr EC50. It is filed as cell-based. The procedure: as §4, §5, §6, §7

Test [7] concerns the target T7, hDP/Gqs5 (Homo sapiens, UniProt Q13258).
T7 construct: expressed in transfected cells; host or cells: HEK-293(EBNA)
T7 sequence (Q13258 1-359): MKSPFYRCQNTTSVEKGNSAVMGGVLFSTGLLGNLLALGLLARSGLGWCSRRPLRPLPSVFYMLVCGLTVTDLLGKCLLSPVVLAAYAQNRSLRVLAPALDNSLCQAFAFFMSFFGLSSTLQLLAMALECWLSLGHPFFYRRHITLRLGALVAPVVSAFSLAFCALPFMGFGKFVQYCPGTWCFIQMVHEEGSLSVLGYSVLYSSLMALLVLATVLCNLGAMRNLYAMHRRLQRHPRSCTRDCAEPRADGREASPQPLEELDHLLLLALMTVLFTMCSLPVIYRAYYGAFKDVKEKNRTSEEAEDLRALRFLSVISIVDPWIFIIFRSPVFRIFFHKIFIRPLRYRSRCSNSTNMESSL
The experiment in a line: FLIPR calcium signal, hDP. The format is cell-based. The procedure: as §4, §5, §6, §7

Where two headings read alike, the source gives them in different places.

T1 sequence (P35408 whole entry): as the sequence (P35408 whole entry) above
T4 sequence (P43116 whole entry): as the sequence (P43116 whole entry) above

Consider `CCCCCCC(O)c1ccc(N2C(=O)CC[C@@H]2COCc2ccc(C(=O)O)s2)cc1` (single isomer, unassigned) [drawing 153], for which the Ki (commonly the equilibrium dissociation constant of an inhibitor or competing ligand from its target) in test [1] was found to be 3290 nM. The EC50 (in general, the concentration that produces a half-maximal response) in test [2] amounted to 621 nM; in test [3], 4 nM.
Consider `CCCCCC(O)c1ccc(N2C(=O)CC[C@@H]2COCc2ccc(C(=O)O)s2)cc1` (single isomer, unassigned) [drawing 149], for which the Ki amounted to 6030 nM in test [1] and 116 nM in test [4]. For the same compound, the EC50 in test [2] is 1200 nM; in test [3], 1.5 nM; in test [5], above 10000 nM.
With `CCCCCCC(O)c1ccc(N2C(=O)CC[C@@H]2COCc2ccc(C(=O)O)s2)cc1` (single isomer, unassigned) [drawing 181], the Ki was determined as 3290 nM in test [1] and 201 nM in test [4]. Also, the values for the EC50 in test [2], in test [3] and in test [6] were 621 nM, 4 nM and 49 nM, respectively.
Take `CCCC1(C(O)c2cccc(C3C(O)CC(=O)C3Cc3cccc(OCC(=O)O)c3)c2)CCC1` (stereo not drawn): the concentration for a half-maximal effect (EC50) in test [7] (FLIPR Ca2+ signal, HEK-293(EBNA), read-out: FUNCTIONAL EC50 HDP) was above 10000 nM.
Consider `O=C(O)c1ccc(COC[C@H]2CCC(=O)N2c2ccc(C(O)Cc3ccccc3)cc2)o1` (stereo partly drawn), for which the Ki in test [1] is above 10000 nM; in test [4] it was 2290 nM. For the same compound, the EC50 in test [3] was 148 nM; in test [6], 1230 nM.
In the case of `CC(C)(C)c1ccc(N2C(=O)CC[C@@H]2COCCCCC(=O)O)cc1`, the Ki in test [1] was above 10000 nM. Also, the EC50 in test [5] and in test [6] was above 10000 nM throughout.
`CCCCC(O)c1ccc(N2C(=O)CC[C@@H]2COCc2ccc(C(=O)O)s2)cc1` (stereo partly drawn): the Ki is above 10000 nM in test [1] and 387 nM in test [4]. For the same compound, the 50% effective concentration (EC50) in test [3] is 8 nM; in test [6] it was 212 nM.
`CCCCCC(O)c1ccc(N2C(=O)CC[C@@H]2COCc2ccc(C(=O)O)o2)cc1` (stereo partly drawn): the Ki in test [1] is above 10000 nM; in test [4] it was 2030 nM. Also, the values for the EC50 in test [2], in test [3] and in test [6] were 1930 nM, 26 nM and 388 nM, respectively.
In the case of `CCCCCC(O)c1ccc(N2C(=O)CC[C@@H]2CCCc2ccc(C(=O)O)s2)cc1` (single isomer, unassigned) [drawing 150], the Ki in test [1] is above 10000 nM. Also, the EC50 in test [2] was 12 nM; in test [5] it was above 10000 nM; in test [6], 6 nM.
With `CCCCCC(O)c1ccc(N2C(=O)CC[C@@H]2/C=C/Cc2ccc(C(=O)O)s2)cc1` (stereo partly drawn) [drawing 144], the inhibition constant Ki in test [1] is above 10000 nM; in test [4], 1380 nM. Besides, the figures for the EC50 in test [3] and in test [6] were 15 nM and 226 nM, respectively.
The corresponding values for `CCCCCC(=O)c1ccc(N2C(=O)CC[C@@H]2COCc2ccc(C(=O)O)s2)cc1` are above 10000 nM, 163 nM, 8 nM and 215 nM.
The corresponding values for `CC(C)C(O)c1ccc(N2C(=O)CC[C@@H]2COCc2ccc(C(=O)O)o2)cc1` (stereo partly drawn) are above 10000 nM, above 10000 nM, 1220 nM and 7670 nM.
For `CCCC(O)c1ccc(N2C(=O)CC[C@@H]2COCc2ccc(C(=O)O)s2)cc1` (stereo partly drawn), in that order: above 10000 nM, 1640 nM, 27 nM and 426 nM.
Consider `CCCCCC(O)c1ccc(N2C(=O)CC[C@@H]2COCc2cccc(C(=O)O)c2)cc1` (stereo partly drawn), for which the Ki in test [1] was above 10000 nM. For the same compound, the results for the concentration giving a half-maximal response (EC50) in test [3] and in test [6] were 517 nM and above 10000 nM, respectively.
Regarding `CC(C)(C)c1ccc(N2C(=O)CC[C@@H]2COCc2cccc(C(=O)O)c2)cc1`, in test [1], the Ki is above 10000 nM. Moreover, the concentration giving a half-maximal response (EC50) in test [5] and in test [6] was above 10000 nM throughout.
As for `CCCC1([C@@H](O)c2ccc([C@H]3CCC(=O)[C@@H]3C/C=C\CCCC(=O)O)cc2)CCC1` [drawing 191], the EC50 in test [7] (read-out: FUNCTIONAL Ca2+ EC50 HDP) was above 10000 nM.

The record behind these values is patent US7799821B2, “Therapeutic compounds” (Allergan, Inc., priority 2004, dated 2010).
